Measured values reported in patent US8318207B2, “Encapsulation and controlled release of small molecules for intracellular delivery using thermally responsive nanocapsules” (University of South Carolina, priority 2009, dated 2012).

Experiments:
[1] = Nanoencapsulation and controlled release of trehalose (dialysis, trehalose assay kit); type: physicochemical
Protocol: The resultant freeze-dried mixture of extra-capsular trehalose and trehalose-loaded nanocapsules was either used immediately or stored at −20° C. for future use.
To determine whether trehalose can be withheld in the nanocapsule at 37° C. for controlled release, the freeze-dried mixture of trehalose and trehalose-loaded nanocapsules was preheated to 37° C. and dissolved in 2 ml warm water at 37° C. in a 15 ml centrifuge tube. The final overall trehalose (i.e., trehalose both inside and outside the nanocapsules) concentration in the solution was 15% (w/v) and the corresponding nanocapsule (excluding the encapsulated trehalose) concentration was 10 mg/ml. Therefore, the total amount of trehalose and nanocapsules (excluding the encapsulated trehalose) in the 2 ml solution was 0.3 and 0.02 g, respectively. The solution in the centrifuge tube was then transferred either after cooling at 22° C. (i.e., cold shocking) for 15 min or immediately into a Spectra/Por dialysis bag (MWCO, 50 kDa) and placed in a beaker containing 1 L of deionized water kept warm at 37° C. with constant stirring using a hotplate/stirrer for 5 hr. It is expected that the 15 min cooling at 22° C. followed by heating at 37° C. in the beaker should result in a quick release of nanoencapsulated trehalose as a result of the more than 15 times of volume expansion and contraction in response to the temperature variation. Control experiments were performed similarly except that 2 ml of 15% (w/v) pure trehalose solution (i.e., in the absence of nanocapsules) was used in the dialysis tube. […] Trehalose concentration in the 0.5 ml samples was determined using a trehalose assay kit (Megazyme Co., Wicklow, Ireland) by following the manufacturer's instructions. […] The absorbance at 340 nm of NADPH was then measured using a Shimazu (Columbia, Md.) UV-2101PC spectrophotometer to determine the amount of trehalose in the original sample.

[2] = system: 3T3 fibroblasts; assay: Collagen production, Sircol assay; type: cell-based; conditions: 0.22 M extracellular trehalose, 40 min incubation (0.5 mg/ml nanocapsules where present)
Protocol: The immediate cell viability, proliferation, and collagen production of 3T3 cells exposed to 0.22 M extracellular trehalose and 0.5 mg/ml nanocapsules (loaded with trehalose) (As will be shown later in Results and Discussion that the intracellular trehalose is ˜0.3 M under this loading condition) were further studied to test the effectiveness of the nanocapsule based approach for intracellular delivery of trehalose. Immediate cell viability and proliferation of the 3T3 cells after loading with trehalose were studied in the same way as that described for 3T3 cells loaded with empty nanocapsules in section 2.6. The collagen production of cells exposed to 0 M trehalose and 0 mg/ml nanocapsules (control), 0.22 M extracellular trehalose and 0 mg/ml nanocapsules (trehalose without NE), and 0.22 M extracellular trehalose and 0.5 mg/ml extracellular nanocapsules (nanoencapsulated with trehalose) was quantified using the Sircol™ Assay kit (Biocolor, Belfast, N. Ireland). To do this, the cells treated under the three conditions were further cultured for 3 days. […] The absorbance at 540 nm wavelength of the dye was then measured using a BioTek Synergy 2 microplate reader (Winooski, Vt.). Collagen concentration in the collected medium was quantified by comparing its absorbance subtracted with the absorbance of the blank sample with that of the standards.

[3] = system: NIH 3T3 fibroblasts; assay: Long-term (3-day) cell proliferation; type: cell-based; conditions: 0.22 M extracellular trehalose, 40 min incubation (0.5 mg/ml nanocapsules where present)
Protocol: For long-term cell proliferation studies, cells were seeded in 33 mm Petri dishes at a relatively low density of 1×10^5 cells/dish in 1 ml medium. At 24 h, the cells were exposed to nanocapsules in the same way as that described above for immediate cell viability studies. After cold shock, the cells were further cultured for 3 days to monitor their proliferation (long-term toxicity). This was done by taking at least 10 representative images of the samples every day including the day (taken as day 0) when the cells were exposed to nanocapsules. The total number of cells in each image were counted automatically using NIH ImageJ. […] The collagen production of cells exposed to 0 M trehalose and 0 mg/ml nanocapsules (control), 0.22 M extracellular trehalose and 0 mg/ml nanocapsules (trehalose without NE), and 0.22 M extracellular trehalose and 0.5 mg/ml extracellular nanocapsules (nanoencapsulated with trehalose) was quantified using the Sircol™ Assay kit (Biocolor, Belfast, N. Ireland). […] The absorbance at 540 nm wavelength of the dye was then measured using a BioTek Synergy 2 microplate reader (Winooski, Vt.). Collagen concentration in the collected medium was quantified by comparing its absorbance subtracted with the absorbance of the blank sample with that of the standards.

[4] = system: 3T3 fibroblasts; assay: Nanocapsule assisted intracellular delivery of trehalose; type: cell-based; conditions: extracellular trehalose 0.165 M (nanocapsule 0.375 mg/ml where present), 40 min at 37° C.
Protocol: The procedures performed for cellular uptake of the trehalose loaded nanocapsules was the same as that described in section 2.6 for the uptake of empty nanocapsules. […] The cells were then detached/lysed in deionized water with the aid of a cell scraper. The cells were further lysed using three cycles of freezing and thawing in liquid nitrogen and 37° C. water bath, respectively. The lysed cell suspension was homogenized for 10 min by sonication using a Branson ultrasonic cleaner (Danbury, Conn.) followed by a brief vortex-mixing. After centrifuging at 10,000 g for 10 min, the supernatant of each sample was divided into two aliquots. One aliquot was used to determine trehalose concentration in the sample using the trehalose assay kit (Megazyme Co. Wicklow, Ireland) as described in the previous section. […] The other aliquot was used to determine cell density in the sample based on its DNA content measured using a method described in Dunn et. al, Long-term in vitro function of adult hepatocytes in a collagen sandwich configuration, Biotechnol Prog 1991 May-Jun;7(3):237-245. […] With the trehalose concentration and cell density in the sample being measured, the total amount of intracellular trehalose and the total number of cells (and thus the total osmotically active cell volume) can be calculated. Therefore, the intracellular trehalose concentration can be determined.

OC[C@H]1O[C@H](O[C@H]2O[C@H](CO)[C@@H](O)[C@H](O)[C@H]2O)[C@H](O)[C@@H](O)[C@@H]1O [Trehalose w/o NE, α,α-trehalose]
time for trehalose release from the dialysis bag to reach equilibrium ([1]; 2 ml of 15% (w/v) into 1 L deionized water at 37° C.): approximately 2 hours
trehalose released from the dialysis tube ([1]; after one hour, 37° C.): more than 80%
trehalose concentration in the 1 L solution outside the dialysis tube ([1]; at 2 hr, 37° C., no cold shock): 0.3 g/L
3 day collagen production vs control [2]: No significant differences
3 day cell proliferation vs control [3]: No significant differences
intracellular trehalose concentration [4]: 0.02 M
